This note sets out measurements from article PMC8286840, “Identifying SARS-CoV-2 antiviral compounds by screening for small molecule inhibitors of Nsp3 papain-like protease” (Biochemical Journal, 2021).

Assay [1] has as its target T1, SARS-CoV-2 PLpro (nsp3 1564–1878) (Severe acute respiratory syndrome coronavirus 2, UniProt P0DTD1). Nature of the assay: biochemical. The conditions noted are these: read-out: % of control remaining. Set-up: FRET-quenched peptide (Pro3) cleavage by PLpro, 10 min pre-incubation, slope over 20 min, normalised to no-compound control.
Assay [2] has as its target T1, SARS-CoV-2 PLpro (nsp3 1564–1878). Nature of the assay: biochemical. Set-up: FRET-quenched peptide (Pro3) cleavage by PLpro, 10 min pre-incubation, slope over 20 min, normalised to no-compound control. Particulars: read-out: % of control remaining. This is another data set of the same source.

Where a name gives a salt, the structure may show the parent alone. Read-outs that look alike come from different tables or passages of the source.

On to `CC(=O)N[C@@H](Cc1ccccc1)C(=O)O` [NSC 45699], for which the remaining activity at 1.25 µM in assay [1] (Well no.=8710, low concentration screen) was determined as 107%. Besides, the remaining activity at 3.75 µM in assay [2] (Well no.=8710, high concentration screen) worked out at 106%.

Consider `O=C1C(SCCO)=C(SCCO)C(=O)c2ccccc21` [NSC 95397], for which, in assay [1] (Well no.=5678, low concentration screen), the remaining activity at 1.25 µM is 92%. Besides, in assay [2] (Well no.=5678, high concentration screen), the remaining activity at 3.75 µM was found to be 75.9%.

Turning to `CN1CCN(c2ccc([N+](=O)[O-])c3no[n+]([O-])c23)CC1` [NSC-207895 (XI-006)], the remaining activity at 1.25 µM in assay [1] (Well no.=4647, low concentration screen) came out at 101%. Besides, in assay [2] (Well no.=4647, high concentration screen), the remaining activity at 3.75 µM was determined as 95.2%.

`O=c1cc(N2CCOCC2)oc2c(-c3cccc4c3sc3ccccc34)cccc12` [NU7441 (KU-57788)]: in assay [1] (Well no.=4926, low concentration screen), the remaining activity at 1.25 µM was determined as 99.2%. In assay [2] (Well no.=4926, high concentration screen), the remaining activity at 3.75 µM is 94.3%.

For `O=c1cc(N2CCOCC2)oc2c1ccc1ccccc12` [NU 7026 - 2-(4-Morpholinyl)-4H-naphthol[1,2-b]pyran-4-one], in assay [1] (Well no.=2630, low concentration screen), the remaining activity at 1.25 µM worked out at 92.2%. In addition, in assay [2] (Well no.=2630, high concentration screen), the remaining activity at 3.75 µM amounted to 92.6%.

With `O=C(Nc1nc2ccc(NC(=O)C34C[C@H]5C[C@@H](C3)C[C@@H](C4)C5)cc2s1)c1ccccc1` [NVP-231], the remaining activity at 1.25 µM in assay [1] (Well no.=5410, low concentration screen) worked out at 95.2%. Moreover, the remaining activity at 3.75 µM in assay [2] (Well no.=5410, high concentration screen) worked out at 86.5%.

As for `CCNC(=O)c1cc2c(-c3cc(OCCN4CCCC4)c(Cl)cc3Cl)nc(N)nc2s1` [NVP-BEP800], the remaining activity at 1.25 µM in assay [1] (Well no.=4917, low concentration screen) is 93.5%. Moreover, the remaining activity at 3.75 µM in assay [2] (Well no.=4917, high concentration screen) amounted to 95.1%.

For `COc1ccc(-c2ccc3ncc4c(c3c2)n(-c2ccc(N3CCNCC3)c(C(F)(F)F)c2)c(=O)n4C)cn1` [NVP-BGT226], in assay [1] (Well no.=4701, low concentration screen), the remaining activity at 1.25 µM was found to be 99%. Also, the remaining activity at 3.75 µM in assay [2] (Well no.=4701, high concentration screen) is 97.1%.

Regarding `Cc1ccc(C(=O)Nc2cccc(C(F)(F)F)c2)cc1Nc1nc(-c2cccnc2)nc2c1cnn2C` [NVP-BHG712], in assay [1] (Well no.=4820, low concentration screen), the remaining activity at 1.25 µM was determined as 100%. The remaining activity at 3.75 µM in assay [2] (Well no.=4820, high concentration screen) stood at 96.9%.

For `Cn1cc(-c2ccc3ncc(Cc4ccc5ncccc5c4)n3n2)cn1` [NVP-BVU972], the remaining activity at 1.25 µM in assay [1] (Well no.=4930, low concentration screen) came to 98.1%. For the same compound, the remaining activity at 3.75 µM in assay [2] (Well no.=4930, high concentration screen) is 92.3%.

Regarding `COc1cc2c(cc1OC(C)C)[C@H](c1ccc(Cl)cc1)N(c1ccc(N(C)C[C@H]3CC[C@H](N4CCN(C)C(=O)C4)CC3)cc1)C(=O)C2` [NVP-CGM097 (sulfate)], the remaining activity at 1.25 µM in assay [1] (Well no.=6878, low concentration screen) worked out at 95.2%. Moreover, the remaining activity at 3.75 µM in assay [2] (Well no.=6878, high concentration screen) turned out to be 89.6%.

For the compound `COc1cc2c(cc1OC(C)C)[C@H](c1ccc(Cl)cc1)N(c1ccc(N(C)C[C@H]3CC[C@H](N4CCN(C)C(=O)C4)CC3)cc1)C(=O)C2` [NVP-CGM097], the remaining activity at 1.25 µM in assay [1] (Well no.=6974, low concentration screen) was determined as 95.7%. Besides, the remaining activity at 3.75 µM in assay [2] (Well no.=6974, high concentration screen) was 94.5%.

On to `CNC(=O)c1ccccc1Nc1nc(Nc2ccc(N3CCOCC3)cc2OC)ncc1Cl` [NVP-TAE226], for which the remaining activity at 1.25 µM in assay [1] (Well no.=4789, low concentration screen) was found to be 103%. Besides, the remaining activity at 3.75 µM in assay [2] (Well no.=4789, high concentration screen) worked out at 105%.

`CN(C)C(N)=NCCC[C@H](N)C(=O)O` [N^G,N^G-Dimethylarginine hydrochloride]: the remaining activity at 1.25 µM in assay [1] (Well no.=689, low concentration screen) was determined as 97%. The remaining activity at 3.75 µM in assay [2] (Well no.=689, high concentration screen) came to 97%.

As for `COc1ccc2cc(CCC(C)=O)ccc2c1` [Nabumetone], the remaining activity at 1.25 µM in assay [1] (Well no.=2005, low concentration screen) stood at 102%. The remaining activity at 3.75 µM in assay [2] (Well no.=2005, high concentration screen) worked out at 101%.

Turning to `CC1CCc2c(N3CCC(O)CC3)c(F)cc3c(=O)c(C(=O)O)cn1c23` (stereo not shown) [Nadifloxacin], the remaining activity at 1.25 µM in assay [1] (Well no.=2003, low concentration screen) worked out at 96.2%. Besides, the remaining activity at 3.75 µM in assay [2] (Well no.=2003, high concentration screen) was 94.8%.

Take `N=C(N)Nc1ccc(C(=O)Oc2ccc3cc(C(=N)N)ccc3c2)cc1` [Nafamostat mesylate]: in assay [1] (Well no.=4809, low concentration screen), the remaining activity at 1.25 µM was 104%. In assay [2] (Well no.=4809, high concentration screen), the remaining activity at 3.75 µM is 104%.

Regarding `CCOc1ccc2ccccc2c1C(=O)N[C@@H]1C(=O)N2[C@@H]1SC(C)(C)[C@@H]2C(=O)O` [Nafcillin (sodium monohydrate)], in assay [1] (Well no.=8660, low concentration screen), the remaining activity at 1.25 µM came out at 99%. Besides, the remaining activity at 3.75 µM in assay [2] (Well no.=8660, high concentration screen) was 98.1%.

For the compound `CCOc1ccc2ccccc2c1C(=O)N[C@@H]1C(=O)N2[C@@H]1SC(C)(C)[C@@H]2C(=O)O` [Nafcillin Sodium], the remaining activity at 1.25 µM in assay [1] (Well no.=4690, low concentration screen) is 104%. Besides, the remaining activity at 3.75 µM in assay [2] (Well no.=4690, high concentration screen) came out at 101%.

On to `CCN(CC)CCOC(=O)C(Cc1cccc2ccccc12)CC1CCCO1` (stereo not shown) [Naftidrofuryl (oxalate)], for which the remaining activity at 1.25 µM in assay [1] (Well no.=7050, low concentration screen) worked out at 98%. For the same compound, the remaining activity at 3.75 µM in assay [2] (Well no.=7050, high concentration screen) is 93.7%.

`CN(C/C=C/c1ccccc1)Cc1cccc2ccccc12` [Naftifine HCl]: the remaining activity at 1.25 µM in assay [1] (Well no.=4983, low concentration screen) was determined as 96.8%. For the same compound, in assay [2] (Well no.=4983, high concentration screen), the remaining activity at 3.75 µM stood at 96.2%.

Regarding `COc1ccccc1N1CCN(CC(O)COc2cccc3ccccc23)CC1` (stereo not shown) [Naftopidil dihydrochloride], the remaining activity at 1.25 µM in assay [1] (Well no.=1084, low concentration screen) was found to be 96.1%. For the same compound, in assay [2] (Well no.=1084, high concentration screen), the remaining activity at 3.75 µM stood at 95.6%.

Consider `COc1ccccc1N1CCN(CC(O)COc2cccc3ccccc23)CC1` (stereo not shown) [Naftopidil], for which, in assay [1] (Well no.=7523, low concentration screen), the remaining activity at 1.25 µM was 101%. Also, the remaining activity at 3.75 µM in assay [2] (Well no.=7523, high concentration screen) is 97.2%.

Consider `Oc1ccc2c3c1O[C@H]1[C@@H](O)CC[C@@]4(O)[C@@H](C2)N(CC2CCC2)CC[C@]314` [Nalbuphine], for which the remaining activity at 1.25 µM in assay [1] was 95.6%. Further, the remaining activity at 3.75 µM in assay [2] is 97.3%.

In the case of `CCn1cc(C(=O)O)c(=O)c2ccc(C)nc21` [Nalidixic acid sodium], the remaining activity at 1.25 µM in assay [1] (Well no.=951, low concentration screen) was found to be 101%. Moreover, the remaining activity at 3.75 µM in assay [2] (Well no.=951, high concentration screen) came out at 102%.

Regarding `CCn1cc(C(=O)O)c(=O)c2ccc(C)nc21` [Nalidixic acid], in assay [1] (Well no.=3256, low concentration screen), the remaining activity at 1.25 µM was 99.8%. In assay [2] (Well no.=3256, high concentration screen), the remaining activity at 3.75 µM was 99.3%.

For `C=CCN1CC[C@]23c4c5ccc(O)c4O[C@H]2/C(=N/N=C2\CC[C@@]4(O)[C@H]6Cc7ccc(O)c8c7[C@@]4(CCN6CC=C)[C@H]2O8)CC[C@@]3(O)[C@H]1C5` [Naloxonazine dihydrochloride], the remaining activity at 1.25 µM in assay [1] (Well no.=894, low concentration screen) is 105%. Also, the remaining activity at 3.75 µM in assay [2] (Well no.=894, high concentration screen) was determined as 107%.

As to `C=CCN1CC[C@]23c4c5ccc(O)c4O[C@H]2/C(=N/N=C2\CC[C@@]4(O)[C@H]6Cc7ccc(O)c8c7[C@@]4(CCN6CC=C)[C@H]2O8)CC[C@@]3(O)[C@H]1C5` [Naloxonazine], the remaining activity at 1.25 µM in assay [1] (Well no.=2062, low concentration screen) is 101%. Also, in assay [2] (Well no.=2062, high concentration screen), the remaining activity at 3.75 µM amounted to 105%.

Regarding `C=CCN1CC[C@]23c4c5ccc(O)c4O[C@H]2/C(=N/NC(=O)c2ccccc2)CC[C@@]3(O)[C@H]1C5` [Naloxone benzoylhydrazone], the remaining activity at 1.25 µM in assay [1] (Well no.=798, low concentration screen) stood at 93.2%. Besides, the remaining activity at 3.75 µM in assay [2] (Well no.=798, high concentration screen) is 99.5%.

`C=CCN1CC[C@]23c4c5ccc(O)c4O[C@H]2C(=O)CC[C@@]3(O)[C@H]1C5` [Naloxone hydrochloride]: the remaining activity at 1.25 µM in assay [1] (Well no.=907, low concentration screen) worked out at 103%. Also, in assay [2] (Well no.=907, high concentration screen), the remaining activity at 3.75 µM amounted to 105%.

In the case of `C=CCN1CC[C@]23c4c5ccc(O)c4O[C@H]2C(=O)CC[C@@]3(O)[C@H]1C5` [Naloxone], the remaining activity at 1.25 µM in assay [1] (Well no.=2060, low concentration screen) was determined as 104%. The remaining activity at 3.75 µM in assay [2] (Well no.=2060, high concentration screen) was determined as 103%.

`O=C1CC[C@@]2(O)[C@H]3Cc4ccc(O)c5c4[C@@]2(CCN3CC2CC2)[C@H]1O5` [Naltrexone (Hydrochloride)]: in assay [1] (Well no.=8147, low concentration screen), the remaining activity at 1.25 µM is 98.3%. In addition, in assay [2] (Well no.=8147, high concentration screen), the remaining activity at 3.75 µM amounted to 95.1%.
